In brackets after ≈: the same amount, converted by molar mass.
How the values were obtained:
E. faecalis ATCC 29212 = test: Microbroth dilution MIC (CLSI); type: cell-based; settings: Enterococcus faecalis, ATCC29212; E. faecalis ATCC 29212; read-out: MIC
Procedure: (§1) The chemical entities described in the present invention were assessed for their antimicrobial activity using a microbroth dilution assay as recommended by the CLSI (Methods for Dilution Antimicrobial Susceptibility Tests for Bacteria That Grow Aerobically, and Methods for Antimicrobial Susceptibility Testing of Anaerobic Bacteria, Clinical and Laboratory Standards Institute, Document M07-A8, and M11-A8, Wayne, PA 19087, USA, 2012.). Compounds were dissolved by using 100% DMSO. Serial two-fold dilutions of each compound were made by using 100% DMSO as the diluent.
(§2) A library of Gram-negative and Gram-positive microbes and their drug- and multidrug-resistant variants were employed as test organisms. The MIC (minimum inhibitory concentration) was determined as the lowest concentration of an individual drug that lead to no visible growth.

[1] = tested on: E. spp. cloacae ATCC 13047; test: Microbroth dilution MIC (CLSI); type: cell-based; settings: Enterobacter cloacae, ATCC13047; E. spp. cloacae ATCC 13047; read-out: MIC
Procedure: as §1, §2

E. faecium ATCC 700221 = test: Microbroth dilution MIC (CLSI); type: cell-based; settings: Enterococcus faecium, ATCC700221; E. faecium ATCC 700221; read-out: MIC
Procedure: as §1, §2

[2] = tested on: S. aureus ATCC 700699 (VISA); test: Microbroth dilution MIC (CLSI); type: cell-based; settings: Staphylococcus aureus; S. aureus ATCC 700699 (VISA); read-out: MIC
Procedure: as §1, §2

P. aeruginosa ATCC 27853 = test: Microbroth dilution MIC (CLSI); type: cell-based; settings: Pseudomonas aeruginosa, ATCC27853; P. aeruginosa ATCC 27853; read-out: MIC
Procedure: as §1, §2

E. coli ATCC 25922 = test: Microbroth dilution MIC (CLSI); type: cell-based; settings: Escherichia coli, ATCC25922; E. coli ATCC 25922; read-out: MIC
Procedure: as §1, §2

S. aureus ATCC 29213 = test: Microbroth dilution MIC (CLSI); type: cell-based; settings: Staphylococcus aureus, ATCC29213; S. aureus ATCC 29213; read-out: MIC
Procedure: as §1, §2

K. pneumoniae ATCC 10031 = test: Microbroth dilution MIC (CLSI); type: cell-based; settings: Klebsiella pneumoniae, ATCC10031; K. pneumoniae ATCC 10031; read-out: MIC
Procedure: as §1, §2

A. baumannii ATCC 17978 = test: Microbroth dilution MIC (CLSI); type: cell-based; settings: Acinetobacter baumannii, ATCC17978; A. baumannii ATCC 17978; read-out: MIC
Procedure: as §1, §2

[3] = tested on: S. aureus ATCC 43300 (MRSA); test: Microbroth dilution MIC (CLSI); type: cell-based; settings: Staphylococcus aureus; S. aureus ATCC 43300 (MRSA); read-out: MIC
Procedure: as §1, §2

E. coli topoisomerase IV = target: T1, E. coli topoisomerase IV (Escherichia coli, UniProt P20083); test: biochemical; settings: E. coli topo IV; for IC50: read-out: IC50; for remaining activity at 10 µM: 10 μM compound
T1 construct: purchased Inspiralis
T1 sequence (P0AFI2 whole entry): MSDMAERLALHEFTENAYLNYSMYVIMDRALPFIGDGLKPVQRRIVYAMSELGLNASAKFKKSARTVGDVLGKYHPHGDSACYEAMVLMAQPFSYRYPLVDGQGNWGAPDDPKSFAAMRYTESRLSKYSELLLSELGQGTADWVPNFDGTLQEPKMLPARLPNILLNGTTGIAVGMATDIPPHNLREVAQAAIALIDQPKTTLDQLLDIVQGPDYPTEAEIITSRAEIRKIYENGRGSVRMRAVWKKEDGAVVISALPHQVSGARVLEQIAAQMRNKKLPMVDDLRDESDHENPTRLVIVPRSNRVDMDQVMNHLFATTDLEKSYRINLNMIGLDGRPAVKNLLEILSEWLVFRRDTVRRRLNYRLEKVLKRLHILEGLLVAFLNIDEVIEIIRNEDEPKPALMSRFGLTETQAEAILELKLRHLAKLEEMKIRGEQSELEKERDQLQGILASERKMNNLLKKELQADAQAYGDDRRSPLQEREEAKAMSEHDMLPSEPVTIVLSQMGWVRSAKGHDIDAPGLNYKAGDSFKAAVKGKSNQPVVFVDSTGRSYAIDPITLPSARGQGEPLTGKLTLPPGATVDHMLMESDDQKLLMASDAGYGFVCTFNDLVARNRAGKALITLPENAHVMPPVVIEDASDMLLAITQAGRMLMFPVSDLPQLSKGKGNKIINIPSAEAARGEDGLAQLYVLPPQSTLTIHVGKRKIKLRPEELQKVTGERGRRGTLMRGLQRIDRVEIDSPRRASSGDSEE
T1 sequence (P20083 whole entry): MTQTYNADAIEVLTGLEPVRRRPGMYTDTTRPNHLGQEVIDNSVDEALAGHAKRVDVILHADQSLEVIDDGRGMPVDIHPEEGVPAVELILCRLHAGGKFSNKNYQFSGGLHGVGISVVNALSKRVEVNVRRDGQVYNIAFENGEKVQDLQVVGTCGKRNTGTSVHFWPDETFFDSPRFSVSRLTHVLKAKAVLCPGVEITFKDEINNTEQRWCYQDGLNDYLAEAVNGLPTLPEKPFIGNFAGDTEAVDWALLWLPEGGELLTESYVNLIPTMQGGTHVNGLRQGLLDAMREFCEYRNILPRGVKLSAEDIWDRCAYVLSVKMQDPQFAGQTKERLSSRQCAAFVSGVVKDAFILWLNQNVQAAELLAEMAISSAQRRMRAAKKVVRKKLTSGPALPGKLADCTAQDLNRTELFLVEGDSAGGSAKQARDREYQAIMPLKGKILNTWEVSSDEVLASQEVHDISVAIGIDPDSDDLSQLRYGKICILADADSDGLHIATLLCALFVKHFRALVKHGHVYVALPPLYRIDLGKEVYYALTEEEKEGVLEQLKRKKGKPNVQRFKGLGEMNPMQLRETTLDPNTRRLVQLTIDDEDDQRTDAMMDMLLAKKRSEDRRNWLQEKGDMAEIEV
Procedure: Inhibitory activities for compounds of the present invention were determined on E. coli and S. aureus DNA gyrase and topoisomerase IV in an assay from Inspiralis on streptavidin-coated 96-well microtiter plates from Thermo scientific Pierce. […] After washing off the unbound oligonucleotide, the enzyme test was performed. […] Reaction solutions were incubated at 37° C. for 30 min. After that, the TF buffer (50 mM NaOAc with pH 5.0, 50 mM NaCl and 50 mM MgCl2) was added to terminate the enzymatic reaction. After additional incubation for 30 min at rt, during which biotin-oligonucleotide-plasmid triplex was formed, the unbound plasmid was washed off using TF buffer and SybrGOLD in T10 buffer (10 mM Tris HCl with pH 8.0 and 1 mM EDTA) was added. […] Initial screening was done at 100 or 10 nM concentration of inhibitors against E. coli DNA gyrase or 1 μM or 100 nM concentration against S. aureus DNA gyrase and E. coli and S. aureus topo IV. […] GraphPad Prism 6.0 software was used to calculate the IC50 values. The result is given as the average value of three independent measurements. […] Chemoth.

E. coli DNA gyrase = target: T2, E. coli DNA gyrase (Escherichia coli, UniProt P0AES6); test: biochemical; settings: E. coli DNA gyrase; for IC50: read-out: IC50
T2 construct: purchased Inspiralis
Procedure: (§3) Inhibitory activities for compounds of the present invention were determined on E. coli and S. aureus DNA gyrase and topoisomerase IV in an assay from Inspiralis on streptavidin-coated 96-well microtiter plates from Thermo scientific Pierce. […] After washing off the unbound oligonucleotide, the enzyme test was performed. […] Reaction solutions were incubated at 37° C. for 30 min. After that, the TF buffer (50 mM NaOAc with pH 5.0, 50 mM NaCl and 50 mM MgCl2) was added to terminate the enzymatic reaction. After additional incubation for 30 min at rt, during which biotin-oligonucleotide-plasmid triplex was formed, the unbound plasmid was washed off using TF buffer and SybrGOLD in T10 buffer (10 mM Tris HCl with pH 8.0 and 1 mM EDTA) was added. […] GraphPad Prism 6.0 software was used to calculate the IC50 values. The result is given as the average value of three independent measurements. […] Chemoth.

S. aureus DNA gyrase = target: T3, S. aureus DNA gyrase (Staphylococcus aureus, UniProt P0A0K8); test: biochemical; settings: S. aureus DNA gyrase; read-out: IC50
T3 construct: purchased Inspiralis
T3 sequence (P20831 whole entry): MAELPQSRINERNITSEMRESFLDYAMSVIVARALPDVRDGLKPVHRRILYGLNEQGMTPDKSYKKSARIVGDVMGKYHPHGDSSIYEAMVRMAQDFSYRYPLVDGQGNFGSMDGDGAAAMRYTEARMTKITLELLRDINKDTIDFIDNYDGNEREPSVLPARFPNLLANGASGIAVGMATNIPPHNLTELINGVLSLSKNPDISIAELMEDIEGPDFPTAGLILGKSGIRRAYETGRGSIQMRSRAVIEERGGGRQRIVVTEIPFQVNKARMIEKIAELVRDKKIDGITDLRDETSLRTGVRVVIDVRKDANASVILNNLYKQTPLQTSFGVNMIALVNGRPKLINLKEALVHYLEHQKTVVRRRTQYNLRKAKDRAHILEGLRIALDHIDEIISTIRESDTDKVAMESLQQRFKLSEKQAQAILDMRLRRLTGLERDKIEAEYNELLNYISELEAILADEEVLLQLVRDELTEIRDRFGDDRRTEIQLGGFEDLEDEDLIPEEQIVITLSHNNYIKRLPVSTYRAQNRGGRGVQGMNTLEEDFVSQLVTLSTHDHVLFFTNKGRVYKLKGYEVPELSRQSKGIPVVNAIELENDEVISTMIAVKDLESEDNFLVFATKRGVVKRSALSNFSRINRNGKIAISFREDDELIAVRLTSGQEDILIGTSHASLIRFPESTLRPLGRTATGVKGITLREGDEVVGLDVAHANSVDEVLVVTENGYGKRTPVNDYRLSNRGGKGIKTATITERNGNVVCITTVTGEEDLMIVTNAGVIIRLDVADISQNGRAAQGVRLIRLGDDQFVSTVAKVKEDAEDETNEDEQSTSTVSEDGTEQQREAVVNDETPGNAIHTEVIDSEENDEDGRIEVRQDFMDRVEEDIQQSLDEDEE
T3 sequence (P0A0K8 whole entry): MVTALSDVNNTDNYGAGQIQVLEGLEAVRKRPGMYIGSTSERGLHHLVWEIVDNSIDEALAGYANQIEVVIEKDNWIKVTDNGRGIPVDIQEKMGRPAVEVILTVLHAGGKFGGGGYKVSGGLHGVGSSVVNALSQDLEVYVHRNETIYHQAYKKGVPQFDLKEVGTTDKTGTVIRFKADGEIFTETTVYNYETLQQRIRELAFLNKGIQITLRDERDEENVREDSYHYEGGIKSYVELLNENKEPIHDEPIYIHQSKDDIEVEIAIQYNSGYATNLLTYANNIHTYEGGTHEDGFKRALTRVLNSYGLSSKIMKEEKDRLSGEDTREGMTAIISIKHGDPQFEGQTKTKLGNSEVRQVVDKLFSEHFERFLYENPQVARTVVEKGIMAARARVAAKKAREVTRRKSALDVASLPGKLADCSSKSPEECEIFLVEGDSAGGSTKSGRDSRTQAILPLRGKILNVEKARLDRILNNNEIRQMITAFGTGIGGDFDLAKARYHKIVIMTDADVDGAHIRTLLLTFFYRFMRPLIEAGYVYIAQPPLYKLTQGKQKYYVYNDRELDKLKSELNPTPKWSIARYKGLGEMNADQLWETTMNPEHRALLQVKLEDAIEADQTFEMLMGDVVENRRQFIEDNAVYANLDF
Procedure: as §3

[4] = read-out: RA (residual activity of the enzyme)

Row | SMILES | MIC (E. faecalis ATCC 29212) [mg/L] | MIC [1] [mg/L] | MIC (E. faecium ATCC 700221) [mg/L] | MIC [2] [mg/L] | MIC (P. aeruginosa ATCC 27853) [mg/L] | MIC (E. coli ATCC 25922) [mg/L] | MIC (S. aureus ATCC 29213) [mg/L] | MIC (K. pneumoniae ATCC 10031) [mg/L] | MIC (A. baumannii ATCC 17978) [mg/L] | MIC [3] [mg/L] | remaining activity at 0.1 µM (E. coli topoisomerase IV; 0.1 μM compound, read-out: RA (residual activity of the enzyme)) [%] | remaining activity at 1 µM (E. coli topoisomerase IV; 1 μM compound, read-out: RA (residual activity of the enzyme)) [%] | IC50 (E. coli DNA gyrase) [nM] | IC50 (E. coli topoisomerase IV) [nM] | IC50 (S. aureus DNA gyrase) [nM] | remaining activity at 10 µM (E. coli topoisomerase IV; [4]) [%] | remaining activity at 10 pM (E. coli DNA gyrase; 0.01 nM compound, read-out: RA (residual activity of the enzyme)) [%] | remaining activity at 0.0001 µM (E. coli DNA gyrase; 0.1 nM compound, read-out: RA (residual activity of the enzyme)) [%] | remaining activity at 0.01 µM (E. coli DNA gyrase; 10 nM compound, read-out: RA (residual activity of the enzyme)) [%]
1 | Cc1[nH]c(C(=O)Nc2ccc(-c3noc(=O)[nH]3)cc2N2CCC(N)CC2)c(Cl)c1Cl.Cl [Example 1, 1-(2-(3,4-Dichloro-5-methyl-1H-pyrrole-2-carboxamido)-5-(5-oxo-4,5-dihydro-1,2,4-oxadiazol-3-yl)phenyl)piperidin-4-aminium chloride] | 32 | ≥ 64 | 32 | 16 | ≥ 64 | ≥ 64 | 64 | 64 | ≥ 64 | 32 | 105 | 33 | 0.253 |  |  |  |  |  | 
2 | Cc1[nH]c(C(=O)Nc2ccc(-c3noc(=O)[nH]3)cc2N2CCCC(N)C2)c(Cl)c1Cl.Cl (stereo not drawn) [Example 2, 1-(2-(3,4-Dichloro-5-methyl-1H-pyrrole-2-carboxamido)-5-(5-oxo-4,5-dihydro-1,2,4-oxadiazol-3-yl)phenyl)piperidin-3-aminium chloride] | 8 | > 64 | 8 | > 64 | > 64 | > 64 | > 64 | 16 | > 64 | > 64 |  |  | 2.49 | 145 | 55.8 |  |  |  | 
3 | Cc1[nH]c(C(=O)Nc2ccc(-c3noc(=O)[nH]3)cc2N2CCCC(CN)C2)c(Cl)c1Cl.Cl (stereo not drawn) [Example 3, (1-(2-(3,4-Dichloro-5-methyl-1H-pyrrole-2-carboxamido)-5-(5-oxo-4,5-dihydro-1,2,4-oxadiazol-3-yl)phenyl)piperidin-3-yl)methanaminium chloride] | 0.25 | > 64 | 2 | 2 | > 64 | > 64 | 4 | 2 | > 64 | 4 |  |  | 3.19 | 41.8 | 24.1 |  |  |  | 
4 | Cc1[nH]c(C(=O)Nc2ccc(-c3n[nH]c(=O)o3)cc2OCc2ccccc2)c(Cl)c1Cl [Example 11, N-(2-(Benzyloxy)-4-(5-oxo-4,5-dihydro-1,3,4-oxadiazol-2-yl)phenyl)-3,4-dichloro-5-methyl-1H-pyrrole-2-carboxamide] | ≥ 32 | ≥ 32 | ≥ 32 | ≥ 32 | ≥ 32 | ≥ 32 | ≥ 32 | ≥ 32 | ≥ 32 | ≥ 32 |  |  | 886 |  |  | 106 |  |  | 
5 | Cc1[nH]c(C(=O)Nc2ccc(-n3nn[nH]c3=O)cc2N2CCN(c3ccccc3)CC2)c(Cl)c1Cl [Example 24, 3,4-Dichloro-5-methyl-N-(4-(5-oxo-4,5-dihydro-1H-tetrazol-1-yl)-2-(4-phenylpiperazin-1-yl)phenyl)-1H-pyrrole-2-carboxamide] | 0.5 (≈ 0.974 µM) | ≥ 32 | 0.5 (≈ 0.974 µM) | 0.5 (≈ 0.974 µM) | ≥ 32 | ≥ 32 | ≥ 32 | ≥ 32 | ≥ 32 | ≥ 32 |  |  | 7.8 |  |  |  |  |  | 
6 | Cc1[nH]c(C(=O)Nc2ccc(-n3nn[nH]c3=O)cc2N2Cc3ccccc3C2)c(Cl)c1Cl [Example 25, 3,4-Dichloro-N-(2-(isoindolin-2-yl)-4-(5-oxo-4,5-dihydro-1H-tetrazol-1-yl)phenyl)-5-methyl-1H-pyrrole-2-carboxamide] | 0.25 (≈ 0.532 µM) | > 64 | 0.5 (≈ 1.06 µM) | > 64 | > 64 | > 64 | 16 (≈ 34 µM) | > 64 | > 64 | > 64 |  |  |  |  |  | 105 | 73 | 26 | 
7 | Cc1[nH]c(C(=O)Nc2ccc(-c3n[nH]c(=O)o3)cc2OC2CCNC2)c(Cl)c1Cl.Cl (stereo not drawn) [Example 26, 3-(2-(3,4-Dichloro-5-methyl-1H-pyrrole-2-carboxamido)-5-(5-oxo-4,5-dihydro-1,3,4-oxadiazol-2-yl)phenoxy)pyrrolidin-1-ium chloride] | ≥ 32 | ≥ 32 | ≥ 32 | ≥ 32 | ≥ 32 | ≥ 32 | ≥ 32 | ≥ 32 | ≥ 32 | ≥ 32 |  |  | 3.54 |  |  |  |  |  | 
8 | Cc1[nH]c(C(=O)Nc2ccc(-c3n[nH]c(=O)o3)cc2OC2CCNCC2)c(Cl)c1Cl.Cl [Example 27, 4-(2-(3,4-Dichloro-5-methyl-1H-pyrrole-2-carboxamido)-5-(5-oxo-4,5-dihydro-1,3,4-oxadiazol-2-yl)phenoxy)piperidin-1-ium chloride] | > 64 | ≥ 32 | 8 | ≥ 64 | ≥ 32 | ≥ 32 | 16 | 0.125 | ≥ 32 | 8 |  |  | 2.26 |  |  |  |  |  | 
9 | Cc1[nH]c(C(=O)Nc2ccc(-c3n[nH]c(=O)o3)cc2OCC2CCCNC2)c(Cl)c1Cl.Cl (stereo not drawn) [Example 28, 3-((2-(3,4-Dichloro-5-methyl-1H-pyrrole-2-carboxamido)-5-(5-oxo-4,5-dihydro-1,3,4-oxadiazol-2-yl)phenoxy)methyl)piperidin-1-ium chloride] | > 64 | > 64 | > 64 | > 64 | > 64 | > 64 | > 64 | 0.5 | > 64 | > 64 |  |  | 0.75 |  |  |  |  |  | 
10 | Cc1[nH]c(C(=O)Nc2ccc(-c3n[nH]c(=O)o3)cc2OCCC2CCNCC2)c(Cl)c1Cl.Cl [Example 29, 4-(2-(2-(3,4-Dichloro-5-methyl-1H-pyrrole-2-carboxamido)-5-(5-oxo-4,5-dihydro-1,3,4-oxadiazol-2-yl)phenoxy)ethyl)piperidin-1-ium chloride] | ≥ 32 | ≥ 32 | ≥ 32 | ≥ 32 | ≥ 32 | ≥ 32 | ≥ 32 | ≥ 32 | ≥ 32 | ≥ 32 |  |  |  |  |  | 103 |  |  | 1

Reference: patent publication US20250002455A1, “NEW N-PHENYLPYRROLAMIDE INHIBITORS OF DNA GYRASE AND TOPOISOMERASE IV WITH ANTIBACTERIAL ACTIVITY” (priority 2020, published 2025)
